Laboratory results published in ChEMBL document CHEMBL4806958, “Anti-cancer/anti-fibrosis compounds” (2020).
The source made the active and inactive calls. No cut-off for these calls is given here.

What was measured:
[1] = molecular target: Casein kinase II subunit alpha (Homo sapiens, UniProt P68400); assay: Inhibition of CSNK2A1(unknown origin) using Ser/Thr 11 as substrate incubated for 60 mins in presence of ATP by Z'-LYTE assay
[2] = molecular target: Homeodomain-interacting protein kinase 2 (Homo sapiens, UniProt Q9H2X6); assay: Inhibition of HIPK2 (unknown origin) using Ser/Thr 09 as substrate incubated for 60 mins in presence of ATP by Z'-Lyte assay
MV4-11 [3] = assay: Cytotoxicity against human MV-4-11 cells assessed as reduction in cell viability measured after 7 days by Celltiter-glo luminescent cell viability assay; type: functional, cell-based; conditions: MV4-11, 168 h
MOLM-14 [4] = assay: Down regulation of phosphorylated-STAT1 level in human MOLM-14 cells at 0.03 to 3 uM after 48 hrs by Western blotting analysis; type: functional, cell-based; conditions: dose 0.03-3 µM
SET-2 = assay: Cytotoxicity against human SET2 cells assessed as reduction in cell viability measured after 7 days by Celltiter-glo luminescent cell viability assay; type: functional, cell-based; conditions: SET-2, 168 h
MV4-11 [5] = assay: Down regulation of phosphorylated-STAT5 level in human MV-4-11 cells after 48 hrs by Western blotting analysis; type: functional, cell-based; conditions: dose 0.03-3 µM
[6] = Cytotoxicity against human A549-Brm3 cells assessed as reduction in cell viability measured after 7 days by Celltiter-glo luminescent cell viability assay; type: functional, cell-based; conditions: A549-BrM3, 168 h
MV4-11 [7] = assay: Down regulation of phosphorylated-STAT1 level in human MV-4-11 cells after 48 hrs by Western blotting analysis; type: functional, cell-based; conditions: dose 0.03-3 µM
MOLM-14 [8] = assay: Down regulation of phosphorylated-STAT5 level in human MOLM-14 cells at 0.03 to 3 uM after 48 hrs by Western blotting analysis; type: functional, cell-based; conditions: dose 0.03-3 µM
MCF7 = assay: Cytotoxicity against human MCF7 cells assessed as reduction in cell viability and measured after 7 days by Celltiter-glo luminescent cell viability assay; type: functional, cell-based; conditions: MCF7, 168 h
MV4-11 [9] = assay: Antitumor activity against human MV-4-11 cells xenografted in NCr nu/nu mouse assessed as tumor growth inhibition at 50 mg/kg, po administered twice a day for 21 days and measured for every 3 days; type: functional, organism-based; conditions: time 21.0 day
SW-620 [10] = assay: Cytotoxicity against human SW620 cells assessed as reduction in cell viability measured after 7 days in presence of glycolysis inhibitor 2-DG by Celltiter-glo luminescent cell viability assay; type: functional, cell-based; conditions: SW-620, 168 h
MV4-11 [11] = assay: Down regulation of phosphorylated-STAT3 level in human MV-4-11 cells after 24 hrs by Western blotting analysis; type: functional, cell-based; conditions: dose 0.03-10 µM
OE33 = assay: Cytotoxicity against human OE33 cells assessed as reduction in cell viability measured after 7 days by Celltiter-glo luminescent cell viability assay; type: functional, cell-based; conditions: OE33, 168 h
RS4-11 = assay: Cytotoxicity against human RS4-11 cells assessed as reduction in cell viability measured after 7 days by Celltiter-glo luminescent cell viability assay; type: functional, cell-based; conditions: RS4-11, 168 h
[12] = Toxicity in athymic nude mouse xenografted with human MOLM-14 cells assessed as effect on body weight at 50 mg/kg, po administered twice a day with 5 days on and 2 days off dosing schedule for 21 days and measured for every other day; type: organism-based; conditions: in vivo, 504 h, time 3 weeks
MV4-11 [13] = assay: Down regulation of CTGF level in human MV-4-11 cells at 0.03 to 3 uM after 48 hrs by Western blotting analysis; type: functional, cell-based; conditions: dose 0.03-3 µM
Huh-7 = assay: Cytotoxicity against human Huh-7 cells assessed as reduction in cell viability and measured after 7 days by Celltiter-glo luminescent cell viability assay; type: functional, cell-based; conditions: Huh-7, 168 h
MOLM-14 [14] = assay: Cytotoxicity against human MOLM-14 cells assessed as reduction in cell viability measured after 7 days by Celltiter-glo luminescent cell viability assay; type: functional, cell-based; conditions: MOLM-14, 168 h
HeLa = assay: Cytotoxicity against human HeLa cells assessed as reduction in cell viability measured after 7 days by Celltiter-glo luminescent cell viability assay; type: functional, cell-based; conditions: 168 h
[15] = Cytotoxicity against human TG-1 cells assessed as reduction in cell viability measured after 7 days by Celltiter-glo luminescent cell viability assay; type: functional, cell-based; conditions: TG1, 168 h
MV4-11 [16] = assay: Down regulation of YAP level in human MV-4-11 cells at 0.03 to 3 uM after 48 hrs by Western blotting analysis; type: functional, cell-based; conditions: dose 0.03-3 µM
MV4-11 [17] = assay: Down regulation of CYR61 level in human MV-4-11 cells at 0.03 to 3 uM after 48 hrs by Western blotting analysis; type: functional, cell-based; conditions: dose 0.03-3 µM
MOLM-14 [18] = assay: Down regulation of phosphorylated-STAT1 level in human MOLM-14 cells at 0.03 to 3 uM after 24 hrs by Western blotting analysis; type: functional, cell-based; conditions: dose 0.03-3 µM
COLO 205 = assay: Cytotoxicity against human COLO-205 cells assessed as reduction in cell viability measured after 7 days by Celltiter-glo luminescent cell viability assay; type: functional, cell-based; conditions: COLO 205, 168 h
[19] = molecular target: Cyclin-dependent kinase 19 (Homo sapiens, UniProt Q9BWU1); assay: Inhibition of kinase tracer 236 binding to GST-tagged CDK19 (unknown origin) incubated for 60 mins by LanthaScreen Eu-Kinase binding assay
COLO357 = assay: Cytotoxicity against human COLO-357 cells assessed as reduction in cell viability and measured after 7 days by Celltiter-glo luminescent cell viability assay; type: functional, cell-based; conditions: COLO357, 168 h
[20] = Cytotoxicity against human H290 cells assessed as reduction in cell viability and measured after 7 days by Celltiter-glo luminescent cell viability assay; type: functional, cell-based; conditions: NCI-H290, 168 h
HCT-116 = assay: Cytotoxicity against human HCT-116 cells assessed as reduction in cell viability measured after 7 days by Celltiter-glo luminescent cell viability assay; type: functional, cell-based; conditions: HCT-116, 168 h
MOLM-14 [21] = assay: Down regulation of phosphorylated-STAT3 level in human MOLM-14 cells at 0.03 to 3 uM after 24 hrs by Western blotting analysis; type: functional, cell-based; conditions: dose 0.03-3 µM
[22] = Cytotoxicity against human CLL-119 cells assessed as reduction in cell viability measured after 7 days by Celltiter-glo luminescent cell viability assay; type: functional, cell-based; conditions: CLL-119, 168 h
[23] = Toxicity in Ncr nu/nu mouse xenografted with human MV-4-11 cells assessed as effect on body weight at 50 mg/kg, po administered twice a day for 21 days and measured for every 3 days; type: organism-based; conditions: in vivo, 504 h, time 21 day
CDK8/Cyclin C = CDK8/Cyclin C (Homo sapiens, UniProt P49336); assay: Inhibition of kinase tracer 236 binding to His-tagged CDK8/cyclin C (unknown origin) incubated for 60 mins by LanthaScreen Eu-Kinase binding assay; type: protein-complex assay
MOLM-14 [24] = assay: Down regulation of phosphorylated-STAT5 level in human MOLM-14 cells at 0.03 to 3 uM after 24 hrs by Western blotting analysis; type: functional, cell-based; conditions: dose 0.03-3 µM
[25] = Cytotoxicity against human H2030-Brm3 cells assessed as reduction in cell viability measured after 7 days by Celltiter-glo luminescent cell viability assay; type: functional, cell-based; conditions: H2030-BrM3, 168 h
A549 = assay: Cytotoxicity against human A549 cells assessed as reduction in cell viability measured after 7 days by Celltiter-glo luminescent cell viability assay; type: functional, cell-based; conditions: A549, 168 h
MOLM-14 [26] = assay: Antitumor activity against human MOLM-14 cells xenografted in athymic nude mouse assessed as tumor growth inhibition at 50 mg/kg, po administered twice a day with 5 days on and 2 days off dosing schedule for 3 weeks and measured every other day; type: functional, organism-based
MV4-11 [27] = assay: Down regulation of phosphorylated-STAT3 level in human MV-4-11 cells after 48 hrs by Western blotting analysis; type: functional, cell-based; conditions: dose 0.03-3 µM
MV4-11 [28] = assay: Down regulation of MCL-1 level in human MV-4-11 cells at 0.03 to 3 uM after 48 hrs by Western blotting analysis; type: functional, cell-based; conditions: dose 0.03-3 µM
BT-474 = assay: Cytotoxicity against human BT474 cells assessed as reduction in cell viability and measured after 7 days by Celltiter-glo luminescent cell viability assay; type: functional, cell-based; conditions: BT-474, 168 h
SW-620 [29] = assay: Cytotoxicity against human SW620 cells assessed as reduction in cell viability measured after 7 days by Celltiter-glo luminescent cell viability assay; type: functional, cell-based; conditions: SW-620, 168 h
MOLM-14 [30] = assay: Down regulation of phosphorylated-STAT1 level in mouse xenografted with human MOLM-14 cells by Western blotting analysis; type: functional, cell-based; conditions: dose 10-100 mg/kg
MSTO-211H = assay: Cytotoxicity against human MSTO-211H cells assessed as reduction in cell viability and measured after 7 days by Celltiter-glo luminescent cell viability assay; type: functional, cell-based; conditions: 168 h
A204 = assay: Cytotoxicity against human A204 cells assessed as reduction in cell viability and measured after 7 days by Celltiter-glo luminescent cell viability assay; type: functional, cell-based; conditions: A204, 168 h
MV4-11 [31] = assay: Down regulation of C-MYC level in human MV-4-11 cells at 0.03 to 3 uM after 48 hrs by Western blotting analysis; type: functional, cell-based; conditions: dose 0.03-3 µM
MV4-11 [32] = assay: Down regulation of phosphorylated-STAT1 level in human MV-4-11 cells after 24 hrs by Western blotting analysis; type: functional, cell-based; conditions: dose 0.03-10 µM
MOLM-14 [33] = assay: Down regulation of phosphorylated-STAT1 level in mouse xenografted with human MOLM-14 cells at 50 mg/kg, po administered twice a day for 21 days by Western blotting analysis; type: functional, organism-based; conditions: time 21.0 day
U-251 = assay: Cytotoxicity against human U251 cells assessed as reduction in cell viability and measured after 7 days by Celltiter-glo luminescent cell viability assay; type: functional, cell-based; conditions: U-251, 168 h
MV4-11 [34] = assay: Down regulation of phosphorylated-STAT5 level in human MV-4-11 cells after 24 hrs by Western blotting analysis; type: functional, cell-based; conditions: dose 0.03-10 µM
NCI-H2052 = assay: Cytotoxicity against human H2052 cells assessed as reduction in cell viability and measured after 7 days by Celltiter-glo luminescent cell viability assay; type: functional, cell-based; conditions: NCI-H2052, 168 h
MOLM-14 [35] = assay: Down regulation of phosphorylated-STAT5 level in mouse xenografted with human MOLM-14 cells at 50 mg/kg, po administered twice a day for 21 days by Western blotting analysis; type: functional, organism-based; conditions: time 21.0 day
MOLM-14 [36] = assay: Down regulation of phosphorylated-STAT3 level in human MOLM-14 cells at 0.03 to 3 uM after 48 hrs by Western blotting analysis; type: functional, cell-based; conditions: dose 0.03-3 µM

Chain of Homeodomain-interacting protein kinase 2 (Q9H2X6 whole entry): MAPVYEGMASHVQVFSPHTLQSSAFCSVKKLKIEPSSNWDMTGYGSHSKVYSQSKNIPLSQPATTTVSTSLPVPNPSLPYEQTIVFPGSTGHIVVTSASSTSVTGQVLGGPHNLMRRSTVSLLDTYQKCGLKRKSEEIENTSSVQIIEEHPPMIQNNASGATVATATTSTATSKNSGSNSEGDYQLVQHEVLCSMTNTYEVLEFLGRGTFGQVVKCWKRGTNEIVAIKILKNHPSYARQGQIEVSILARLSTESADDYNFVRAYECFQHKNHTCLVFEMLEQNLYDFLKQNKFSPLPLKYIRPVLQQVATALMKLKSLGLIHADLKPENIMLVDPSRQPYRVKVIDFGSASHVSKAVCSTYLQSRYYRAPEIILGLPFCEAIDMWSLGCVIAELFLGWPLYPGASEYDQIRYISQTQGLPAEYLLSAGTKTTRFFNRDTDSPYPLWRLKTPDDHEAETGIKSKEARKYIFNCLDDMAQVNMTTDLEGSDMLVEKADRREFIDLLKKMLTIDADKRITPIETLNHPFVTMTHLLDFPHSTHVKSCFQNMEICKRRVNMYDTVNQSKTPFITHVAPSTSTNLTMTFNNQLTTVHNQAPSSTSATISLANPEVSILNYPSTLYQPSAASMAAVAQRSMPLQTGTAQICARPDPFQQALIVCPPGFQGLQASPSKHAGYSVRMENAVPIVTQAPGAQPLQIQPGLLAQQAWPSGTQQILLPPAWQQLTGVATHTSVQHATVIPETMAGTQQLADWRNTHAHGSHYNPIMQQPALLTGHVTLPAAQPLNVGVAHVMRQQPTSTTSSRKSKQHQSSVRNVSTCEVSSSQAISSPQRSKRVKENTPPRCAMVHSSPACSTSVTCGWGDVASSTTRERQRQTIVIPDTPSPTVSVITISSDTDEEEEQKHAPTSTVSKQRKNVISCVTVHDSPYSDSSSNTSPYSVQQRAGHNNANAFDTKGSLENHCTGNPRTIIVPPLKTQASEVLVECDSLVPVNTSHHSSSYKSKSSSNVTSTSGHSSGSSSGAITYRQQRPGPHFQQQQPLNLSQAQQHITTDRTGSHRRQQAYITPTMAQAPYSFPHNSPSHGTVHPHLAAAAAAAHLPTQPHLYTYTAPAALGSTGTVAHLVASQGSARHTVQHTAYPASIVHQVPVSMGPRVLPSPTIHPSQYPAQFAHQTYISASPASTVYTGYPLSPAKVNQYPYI
Chain of Casein kinase II subunit alpha (P68400 whole entry): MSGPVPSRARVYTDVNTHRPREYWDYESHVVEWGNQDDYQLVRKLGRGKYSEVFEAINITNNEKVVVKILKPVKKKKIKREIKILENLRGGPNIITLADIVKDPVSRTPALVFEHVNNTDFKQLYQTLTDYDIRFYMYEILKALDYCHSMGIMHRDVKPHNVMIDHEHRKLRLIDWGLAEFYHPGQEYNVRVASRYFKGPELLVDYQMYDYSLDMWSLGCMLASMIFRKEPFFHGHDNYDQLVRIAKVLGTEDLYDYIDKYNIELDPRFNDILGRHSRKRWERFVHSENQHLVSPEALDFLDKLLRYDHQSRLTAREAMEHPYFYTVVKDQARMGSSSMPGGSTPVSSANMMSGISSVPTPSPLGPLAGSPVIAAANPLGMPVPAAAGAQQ
Chain of Cyclin-dependent kinase 19 (Q9BWU1 whole entry): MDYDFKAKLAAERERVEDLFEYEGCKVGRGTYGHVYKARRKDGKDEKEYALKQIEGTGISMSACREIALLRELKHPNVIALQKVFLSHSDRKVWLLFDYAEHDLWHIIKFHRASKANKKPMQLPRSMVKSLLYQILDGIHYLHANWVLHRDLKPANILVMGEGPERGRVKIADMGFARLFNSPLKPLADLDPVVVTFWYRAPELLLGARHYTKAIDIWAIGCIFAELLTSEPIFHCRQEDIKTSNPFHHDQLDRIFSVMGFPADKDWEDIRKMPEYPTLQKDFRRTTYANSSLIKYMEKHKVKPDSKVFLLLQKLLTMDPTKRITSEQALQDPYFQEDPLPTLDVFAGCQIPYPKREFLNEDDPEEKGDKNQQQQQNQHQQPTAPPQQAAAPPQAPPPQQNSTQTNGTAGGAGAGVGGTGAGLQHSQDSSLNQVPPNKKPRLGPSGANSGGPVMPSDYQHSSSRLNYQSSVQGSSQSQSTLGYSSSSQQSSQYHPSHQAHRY
Chain of CDK8/Cyclin C (P49336 whole entry): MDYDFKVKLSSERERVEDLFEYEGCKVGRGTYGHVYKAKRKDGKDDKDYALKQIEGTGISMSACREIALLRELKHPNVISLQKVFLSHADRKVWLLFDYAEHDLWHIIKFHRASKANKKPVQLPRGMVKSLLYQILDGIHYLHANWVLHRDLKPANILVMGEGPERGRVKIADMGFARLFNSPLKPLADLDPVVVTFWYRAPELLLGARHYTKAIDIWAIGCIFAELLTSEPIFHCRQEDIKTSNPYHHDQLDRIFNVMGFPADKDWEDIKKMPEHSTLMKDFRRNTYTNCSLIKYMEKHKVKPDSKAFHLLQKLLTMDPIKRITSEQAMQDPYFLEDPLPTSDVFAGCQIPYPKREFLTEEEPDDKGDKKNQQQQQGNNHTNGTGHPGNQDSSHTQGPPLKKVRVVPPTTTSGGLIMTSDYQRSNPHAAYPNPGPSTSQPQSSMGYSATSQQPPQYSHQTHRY
Chain of CDK8/Cyclin C (P24863 whole entry, further chain): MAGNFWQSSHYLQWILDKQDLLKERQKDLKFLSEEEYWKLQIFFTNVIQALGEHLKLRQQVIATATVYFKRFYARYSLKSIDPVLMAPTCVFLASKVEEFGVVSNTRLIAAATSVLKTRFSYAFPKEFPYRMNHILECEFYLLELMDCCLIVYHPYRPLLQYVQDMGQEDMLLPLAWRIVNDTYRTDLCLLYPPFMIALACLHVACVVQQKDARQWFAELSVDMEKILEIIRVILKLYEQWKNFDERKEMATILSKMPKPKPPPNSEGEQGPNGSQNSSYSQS

`O=C(O)c1ccc2c(ccc3ccncc32)c1` gave an IC50 [1] of less than 300 nM.

`O=C(O)c1ccc2c(c1)cc(Br)c1cc(Cl)ncc12` gave an IC50 [2] greater than 5000 nM.

With `Nc1nccc2c(Br)cc3cc(C(=O)[O-])ccc3c12.[Na+]` the IC50 (MV4-11 [3]) was less than 1000 nM, the Activity (MOLM-14 [4]) was “Active” and the IC50 (SET-2) was less than 1000 nM. For the same molecule, the Activity (MV4-11 [5]) was “Dose-Dependent Effect”, the IC50 [6] was 1000 nM and the Activity (MV4-11 [7]) was “Dose-Dependent Effect”. The Activity (MOLM-14 [8]) was “Active”, the IC50 (MCF7) was 1000 nM and the Activity (MV4-11 [9]) was “Active”. The IC50 (SW-620 [10]) was less than 1000 nM, the Activity (MV4-11 [11]) was “Dose-Dependent Effect” and the IC50 (OE33) was less than 1000 nM. For the same molecule, the IC50 (RS4-11) was less than 1000 nM, the IC50 [1] was less than 300 nM and the Activity [12] was “Non-Toxic”. The Activity (MV4-11 [13]) was “Active”, the IC50 (Huh-7) was less than 1000 nM and the IC50 (MOLM-14 [14]) was less than 1000 nM. The IC50 (HeLa) was 1000 nM, the IC50 [15] was less than 1000 nM and the Activity (MV4-11 [16]) was “Active”. For the same molecule, the Activity (MV4-11 [17]) was “Active”, the Activity (MOLM-14 [18]) was “Active” and the IC50 (COLO 205) was less than 1000 nM. It also gave an IC50 [19] of less than 300 nM, an IC50 (COLO357) of 1000 nM and an IC50 [20] of 1000 nM. For the same molecule, the IC50 (HCT-116) was 1000 nM, the Activity (MOLM-14 [21]) was “Active” and the IC50 [22] was less than 1000 nM. The IC50 [2] was less than 300 nM, the Activity [23] was “Non-Toxic” and the IC50 (CDK8/Cyclin C) was less than 300 nM. For the same molecule, the Activity (MOLM-14 [24]) was “Active”, the IC50 [25] was less than 1000 nM and the IC50 (A549) was 1000 nM. For the same molecule, the Activity (MOLM-14 [26]) was “Active”, the Activity (MV4-11 [27]) was “Dose-Dependent Effect” and the Activity (MV4-11 [28]) was “Active”. The IC50 (BT-474) was 1000 nM, the IC50 (SW-620 [29]) was 1000 nM and the Activity (MOLM-14 [30]) was “Dose-Dependent Effect”. For the same molecule, the IC50 (MSTO-211H) was 1000 nM, the IC50 (A204) was 1000 nM and the Activity (MV4-11 [31]) was “Active”. For the same molecule, the Activity (MV4-11 [32]) was “Dose-Dependent Effect”, the Activity (MOLM-14 [33]) was “Active” and the IC50 (U-251) was 1000 nM. For the same molecule, the Activity (MV4-11 [34]) was “Dose-Dependent Effect”, the IC50 (NCI-H2052) was 1000 nM and the Activity (MOLM-14 [35]) was “Active”. The Activity (MOLM-14 [36]) was “Active”.
